Results published in US20250346556A1, “IMPROVEMENTS IN OR RELATING TO ORGANIC COMPOUNDS” (Givaudan SA, priority 2019, published 2025).

Assays:
Assay type in all cases: in vivo
[1] = Taste evaluation, comparison with MSG, by 5 trained panellists
Description: An aqueous NaCl solution (0.5% by weight) was prepared. To this base was added: • a) 30 ppm of the compound Ia (sample 6a); • b) 200 ppm of MSG (sample 6b, benchmark).
The tastes of the two samples 6a and 6b have been evaluated by 5 trained panellists. They were asked to rate the intensity of sample 6a as difference to sample 6b and to describe the overall effect. Typically, the following descriptors are used to describe the effect: umami, salty, bitter, overall sweet.

[2] = Taste evaluation, comparison with further derivatives, by 5 trained panellists; conditions: 20 ppm in aqueous NaCl solution (0.5% by weight); compared with 20 ppm compound Ia
Description: An aqueous NaCl solution (0.5% by weight) was prepared. To this base was added: • a) 20 ppm of the compound Ia (sample 7a); • b) 20 ppm of the compound Ib (sample 7b); • c) 20 ppm of the compound Ic (sample 7c).
The tastes of the three samples 7a, 7b and 7c have been evaluated by 5 trained panellists.

[3] = Taste evaluation of amide ester analogues by four experienced tasters; conditions: 20 ppm in aqueous NaCl (0.5% by weight) and MSG (0.05% by weight)
Description: An aqueous solution of NaCl (0.5% by weight) and MSG (0.05% by weight) was prepared. To this base was added: • a) 20 ppm of the mixture of the compound (Id+Ie) in a ratio 1:2 (sample 8a); • b) 20 ppm of the compound If (sample 8b).
A group of four experienced tasters compared the samples 8a and 8b with the pure base.

**Q.** Which overall preference ([1]; 30 ppm in 0.5% NaCl versus 200 ppm MSG (sample 6b)) does the source give for `C/C=C(\C)C(=O)NCCCCNC(=O)C=Cc1ccccc1` [compound Ia, (E)-N-(4-cinnamamidobutyl)-2-methylbut-2-enamide] here?
**A.** The overall preference was “preferred over sample 6b”.

**Q.** And the “umami on bitter level versus benchmark” value ([1]; 30 ppm in 0.5% NaCl versus 200 ppm MSG (sample 6b, benchmark))?
**A.** Its value is “a little higher than benchmark”.

**Q.** What about the taste description ([1]; 30 ppm in aqueous NaCl solution (0.5% by weight), 5 trained panellists) of the same molecule?
**A.** Its taste description is “umami, brothy and longlasting”.

**Q.** For `C/C=C(\C)C(=O)NCCCCNC(=O)/C=C/c1ccc(OC)cc1` [compound Ib, (E)-N-(4-((E)-3-(4-methoxyphenyl)acrylamido)butyl)-2-methylbut-2-enamide], which “taste description in comparison to sample 7a” value [2] is on record?
**A.** The value was “more umami, stronger and more lingering, more sweet, but having an off note, animalic, floral sweet”.

**Q.** With `C/C=C(\C)C(=O)NCCCCNC(=O)c1ccc(OC)cc1` [compound Ic, (E)-4-methoxy-N-(4-(2-methylbut-2-enamido)butyl)benzamide] as the molecule, how does the “taste description in comparison to sample 7a” value [2] read?
**A.** Its value is “more umami and cleaner umami than sample 7a”.

**Q.** With `C/C=C(\C)C(=O)NCCCCOC(=O)C=Cc1ccccc1` [compound If, 4-((E)-2-methylbut-2-enamido)butyl cinnamate] as the molecule, how does the additional taste description [3] read?
**A.** The additional taste description was “a pleasant taste experience”.

**Q.** And the “umami compared with the pure base” value ([3]; four tasters, unanimous)?
**A.** The value was “more umami than the base”.
